Assay results taken from US9469674B2 (HAINAN UNIVERSITY, dated 2016).

Tested on: Chronic Constriction Injury model of ischiadic nerve (neuralgia)
Conditions: rat, in vivo

CN1CC[C@]23c4c5ccc(O)c4O[C@H]2[C@@H](O)C=C[C@H]3[C@H]1C5 [morphine, reference compound]
analgesic effect on neuralgia: no analgesic effect
mechanical threshold after withdrawal: no significant difference
